pEC50: −log10 of the molar value. Where two headings read alike, the source gives them in different places.

In assay [1] the test system is genotype A, "Long" strain RSV. The assay can be described thus: RSV-A assay (CPE protection in Hep-2 cells, ATPlite readout). Type of assay: cell-based, Human respiratory syncytial virus (HRSV). Particulars: human respiratory syncytial virus, MOI 0.1, CPE protection. In a few lines: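 ATPlite luminescence (cellular ATP) served as the measure of cell health after 5 days of infection. Hep-2 cells at 8,000 per well received duplicate 2-fold compound dilutions plus virus at MOI 0.1, and EC50 was calculated from CPE protection.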
(In general: ATP-based viability assays read luminescence as a measure of living cells.)

The subject of assay [2] is HMPV clinical isolate TN/1501/A1. Kind of assay: HMPV antiviral assay Method-B (clinical isolate TN/1501/A1 in LLC-MK2 cells, ATP-Lite readout). Type of assay: cell-based, Human metapneumovirus (HMPV). Particulars: human metapneumovirus, LLC-MK2, 144 h, hMPV WT1501 (clinical isolate TN/1501/A1), 6 days. In a few lines: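 LLC-MK2 cells infected in suspension with TN/1501/A1 at MOI 0.014 in serum-free medium with 2 μg/mL TPCK-trypsin (final), incubated 6 days at 37° C. Compounds tested in duplicate, 10-point 3-fold dilutions from 10 μM. Cell health read by ATP-Lite luminescence, normalised to virus-only and cells-only controls; EC50 by four-parameter logistic fit.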

Setting [3] is: RSV-A Long strain, read-out: Human RSV-A (“Long”) EC50.
Setting [4] is: genotype A “Long” strain RSV, read-out: Human RSV-A (“Long”).

Regarding `Cc1cnc2c(OC(F)F)cc(C(=O)NC[C@](O)(c3cc4c(c(-c5ccc(F)c(Cl)c5)n3)OC[C@]4(C(N)=O)C(F)F)C3CC3)cc2c1` [Example 1028], the results for the pEC50 in assay [1] (setting [3]) and in assay [2] were under 6.70 and under 6.30, respectively.
Taken in the same sequence, the figures for `Cc1cnc2c(Cl)cc(C(=O)NC[C@](O)(c3cc4c(c(-c5ccc(F)c(Br)c5F)n3)OC[C@]4(C)C(N)=O)C3CC3)cc2c1` [Example 1084] were over 6.70 and over 6.30.
For the compound `COc1cc(C(=O)NC[C@](O)(c2cc3c(c(-c4cnc(C#N)c(Cl)c4)n2)OC[C@]3(C)C(N)=O)C(F)(F)F)cc2cn(C3CC3)nc12` [Example 583], the pEC50 was over 6.70 in assay [1] (setting [4]) and under 6.30 in assay [2].
For `Cc1cnc2c(OC(F)F)cc(C(=O)NC[C@](O)(c3cc4c(c(-c5ccc(F)cc5)n3)OC[C@]4(C)C(N)=O)C3(F)CC3)cc2c1` [Example 710] the same measures were over 6.70 and over 6.30.
As for `COc1cc(C(=O)NC[C@](O)(c2cc3c(c(-c4cc(F)c(F)cc4F)n2)OC[C@]3(C)C(N)=O)C2CC2)cc2cn(C3(F)CC3)nc12` [Example 1147], the pEC50 is over 6.70 in assay [1] (setting [3]) and over 6.30 in assay [2].
As to `COc1cc(C(=O)NC[C@](O)(c2cc3c(c(-c4ccc5c(c4)OC(F)(F)O5)n2)OC[C@]3(C)C(N)=O)C2CC2)cc2cn(C3CC3)nc12` [Example 816], the pEC50 in assay [1] (setting [4]) is over 6.70; in assay [2], over 6.30.
With `COc1cc(C(=O)NC[C@](O)(c2cc3c(c(-c4ccc(F)cc4)n2)OC[C@]3(C)C(N)=O)C(F)(F)F)cc2cc(Br)c(Cl)nc12` [Example 1090], the pEC50 in assay [1] (setting [3]) was over 6.70; in assay [2], under 6.30.
Consider `COc1cc(C(=O)NC[C@](O)(c2cc3c(c(-c4ccc(F)c(Cl)c4F)n2)OC[C@]3(C)C(N)=O)C2(F)CC2)cc2cn(C3CC3)nc12` [Example 752], for which the values for the pEC50 in assay [1] (setting [4]) and in assay [2] were over 6.70 and over 6.30, respectively.
Take `COc1cc(C(=O)NC[C@](O)(c2cc3c(c(-c4cccc(F)c4)n2)OC[C@]3(C)C(N)=O)C(F)(F)F)cc2cn(C3CC3)nc12` [Example 912]: the pEC50 in assay [1] (setting [3]) was over 6.70; in assay [2], over 6.30.
Consider `C[C@]1(C(N)=O)COc2c1cc([C@@](O)(CNC(=O)c1ccc3nn(C4CC4)cc3c1)C1CC1)nc2-c1cccc(Br)c1F` [Example 1100], for which the pEC50 in assay [1] (setting [3]) was over 6.70; in assay [2] it was over 6.30.
Turning to `Cc1nc2c(OC3CC3)cc(C(=O)NC[C@](O)(c3cc4c(c(-c5ccc(F)c(F)c5Cl)n3)OC[C@]4(C)C(N)=O)C(F)(F)F)cc2cc1Cl` [Example 777], the pEC50 in assay [1] (setting [4]) was over 6.70; in assay [2] it was over 6.30.
Consider `COc1cc(C(=O)NC[C@](O)(c2cc3c(c(-c4ccc5c(c4)OC(F)(F)O5)n2)OC[C@]3(C)C(N)=O)C2CC2)cc2cc(C3CC3)nn12` [Example 826], for which the results for the pEC50 in assay [1] (setting [4]) and in assay [2] were over 6.70 and over 6.30, respectively.
For `COc1cc(C(=O)NC[C@](O)(c2cc3c(c(-c4ccc(F)c(Cl)c4)n2)OC[C@]3(C)C(N)=O)C2(F)CC2)cc2cc(C3CC3)nn12` [Example 718] the same measures were over 6.70 and under 6.30.
Taken in the same sequence, the figures for `COc1cc(C(=O)NC[C@](O)(c2cc3c(c(-c4ccc(F)cc4Cl)n2)OC[C@]3(C)C(N)=O)C2(F)CC2)cc2cn(C3CC3)nc12` [Example 732] were over 6.70 and over 6.30.
Taken in the same sequence, the figures for `C[C@]1(C(N)=O)COc2c1cc([C@@](O)(CNC(=O)c1cc(F)c3nc(C4CC4)cn3c1)C1CC1)nc2-c1ccc2c(c1)OC(F)(F)O2` [Example 549] were over 6.70 and over 6.30.
Take `COc1cc(C(=O)NC[C@](O)(c2cc3c(c(-c4ccc(F)c(C(F)(F)F)c4)n2)OC[C@]3(C)C(N)=O)C2CC2)cc2cn(C(F)F)nc12` [Example 655]: the pEC50 was over 6.70 in assay [1] (setting [4]) and over 6.30 in assay [2].
For `C[C@]1(C(N)=O)COc2c1cc([C@@](O)(CNC(=O)c1cc(OC3CC3)c3nn(C(F)F)cc3c1)C(F)(F)F)nc2-c1ccc(F)c(Cl)c1F` [Example 567] the same measures were over 6.70 and over 6.30.
Taken in the same sequence, the figures for `C[C@]1(C(N)=O)COc2c1cc([C@@](O)(CNC(=O)c1ccnc3cc[nH]c13)C(F)(F)F)nc2-c1ccc(F)cc1` [Example 488] were over 6.70 and under 6.30.
In the case of `COc1cc(C(=O)NC[C@](O)(c2cc3c(c(-c4ccc(F)c(Cl)c4)n2)OC[C@]3(C)C(N)=O)C2CC2)cc2sc(C)nc12` [Example 722], the pEC50 in assay [1] (setting [4]) is over 6.70; in assay [2], over 6.30.
Taken in the same sequence, the figures for `COc1cc(C(=O)NC[C@](O)(c2cc3c(c(-c4ccc(F)c(Cl)c4)n2)OC[C@]3(C)C(N)=O)C2CC2)cc2cn(C3CC3)nc12` [Example 575] were over 6.70 and over 6.30.
`COc1cc(C(=O)NC[C@](O)(c2cc3c(c(-c4ccc(F)c(F)c4F)n2)OC[C@]3(C)C(N)=O)C(F)(F)F)cc2cn(C3CC3)nc12` [Example 915]: the pEC50 in assay [1] (setting [3]) was over 6.70; in assay [2], over 6.30.
For `COc1cc(C(=O)NC[C@](O)(c2cc3c(c(-c4cc(F)c(Cl)cc4F)n2)OC[C@]3(C)C(N)=O)C2CC2)cc2cc(Cl)c(C)nc12` [Example 1182] the same measures were over 6.70 and over 6.30.
Taken in the same sequence, the figures for `Cc1cnc2c(OC(F)F)cc(C(=O)NC[C@](O)(c3cc4c(c(-c5ccc(F)cc5)n3)OC[C@]4(CF)C(N)=O)C3CC3)cc2c1` [Example 1058] were over 6.70 and over 6.30.
On to `Cc1cnc2c(Cl)cc(C(=O)NC[C@](O)(c3cc4c(c(-c5ccc(F)c(C(F)(F)F)c5)n3)OC[C@]4(C)C(N)=O)C3CC3)cc2c1` [Example 1102], for which the pEC50 in assay [1] (setting [3]) was over 6.70; in assay [2], over 6.30.
With `Cc1cnc2c(OC(F)F)cc(C(=O)NC[C@](O)(c3cc4c(c(-c5cc(Cl)c(F)cc5F)n3)OC[C@]4(C)C(N)=O)C3CC3)cc2c1` [Example 665], the pEC50 in assay [1] (setting [4]) was over 6.70; in assay [2] it was over 6.30.
`COc1cc(C(=O)NC[C@](O)(c2cc3c(c(-c4cccc(Cl)c4)n2)OC[C@]3(C)C(N)=O)C(F)(F)F)cc2cn(C3CC3)nc12` [Example 975]: the pEC50 was over 6.70 in assay [1] (setting [3]) and over 6.30 in assay [2].
For `COc1cc(-c2nc([C@@](O)(CNC(=O)c3cc(OC)c4nn(C5CC5)cc4c3)C(F)(F)F)cc3c2OC[C@]3(C)C(N)=O)cc2cn(C(F)F)nc12` [Example 942] the same measures were under 6.70 and under 6.30.
For the compound `C[C@]1(C(N)=O)COc2c1cc([C@@](O)(CNC(=O)c1ccn3nc(C4CC4)cc3c1)C(F)(F)F)nc2-c1ccc2c(c1)OC(F)(F)O2` [Example 592], the pEC50 in assay [1] (setting [4]) was over 6.70; in assay [2], over 6.30.
Turning to `COc1cc(C(=O)NC[C@](O)(c2cc3c(c(-c4ccc(F)cc4Cl)n2)OC[C@]3(C)C(N)=O)C2CC2)cc2cn(C3(Cl)CC3)nc12` [Example 844], the pEC50 in assay [1] (setting [3]) is over 6.70; in assay [2] it was over 6.30.
Turning to `COc1cc(C(=O)NC[C@](O)(c2cc3c(c(-c4ccc(F)c(Cl)c4)n2)OC[C@@]3(C(N)=O)C(F)F)C(F)(F)F)cc2cn(C3CC3)nc12` [Example 1003], the pEC50 in assay [1] (setting [3]) was over 6.70; in assay [2], over 6.30.
Taken in the same sequence, the figures for `COc1cc(C(=O)NC[C@](O)(c2cc3c(c(-c4c(F)ccc(Cl)c4F)n2)OC[C@]3(C)C(N)=O)C2CC2)cc2cn(C(F)F)nc12` [Example 1164] were over 6.70 and over 6.30.
